Entries after “also recorded” stand apart in the source; their conditions may differ. Like-named read-outs stand apart in the source and are kept apart here.
How the values were obtained:
[1] = Stability testing at ambient temperature of feeds (HPLC); assay type: physicochemical; details: for Concentration (%) Day 5 / Concentration (%) Day 10: room temperature, day 0 = 100%
Text: Stability testing at ambient temperature: The samples were placed in a room-temperature environment. Samples were taken on day 5 and day 10 for HPLC analysis, and three replications were taken in parallel for each test sample.

[2] = 10 day, 1 wt %
Experimental: (§1) 50 mg of standard substance was accurately weighed out and dissolved in an appropriate amount of methanol by ultrasonication. The solution was then transferred to a 50 mL volumetric flask and diluted to volume with methanol to give a stock solution. Working solutions with concentration as 25 ppm, 125 ppm, 250 ppm, 500 ppm, and 1000 ppm were prepared respectively by the dilution of appropriate amount of the stock solution.
(§2) • Column: Symmetry C18 column (Waters; 250 mm*4.6 mm, 5 μm) • Mobile phase: 0.02% phosphoric acid:methanol=5:95 (v:v) • Wavelength: 223 nm • Column temperature: 25° C. • Injection volume: 10 μL • Flow rate: 1 mL/min
(§3) Thermal stability testing: The test samples were spread in petri dishes to form thin layers of ≤5 mm and placed in a drug stability testing chambers at 60° C. Samples were taken with 3 replications in parallel for each of test samples on day 5 and day 10 for HPLC analysis.

[3] = Thermal stability testing at 60° C. (HPLC); details: for Concentration (%) Day 5 / Concentration (%) Day 10: day 0 = 100%; for degradation ratio: 10-day testing period
Experimental: as §1, §2, §3

[4] = Breeding experiment: production performance of broilers; assay type: in vivo, yellow broilers; details: 30 days; for ADFI (g/d per broiler) / ADG (g/d per broiler) / FCR: basal ration with 25 ppm of active ingredient; for ADFI (g/d per broiler) / ADG (g/d per broiler): 1-day-old yellow broilers; for FCR: feed intake/weight gain
Experimental: The experiment was conducted with single-factor randomized design. 720 1-day-old yellow broilers with a similar average body weight of 50 g, were randomly divided into 8 groups, with 6 replicates per group, equal amount of males and females and 15 yellow broilers per replicate. The chicken house and tools were sterilized before the experiment. During the experiment, the broilers were kept in separate regions in the same chicken house under the same feeding and management conditions. Basal ration mainly consisted of corn and soybean meal. During the entire process, each group was not given other antioxidants or growth promoters. The groups were control group (group 1) and test groups 2 to 8, wherein the control group was given basal ration only, while the test groups 2 to 8 were respectively given basal ration in combination with the different additives with 25 ppm of the active ingredient thereof, wherein the active ingredient was hexahydro-β-acids, or the hexahydro-β-acid compounds, or the coated substances of the hexahydro-β-acid compounds as shown in Table 4.
The experiment lasted for 30 days. The broilers were given ad libitum access to food and water, and feeds were provided twice every day. At the day when the broilers were 31-day old (after withdrawing feed for 12 hours, without withdrawing water), taking each replicate as one unit, body weight of the broilers was measured, and each of average daily feed intake (ADFI, g/d per broiler), average daily weigh gain (ADG, g/d per broiler), and feed conversion ratio (FCR) was calculated. Feed conversion ratio (FCR)=average daily feed intake/average daily weight gain

[5] = Breeding experiment: production performance of hogs; assay type: in vivo, Duroc×Landrace×Yorkshire cross-bred bacon-type piglets; details: for ADFI (g/d per piglet) / ADG (g/d per piglet) / FCR: basal ration with 25 ppm of active ingredient; for ADFI (g/d per piglet) / ADG (g/d per piglet) / FCR / animal production performance compared with the hexahydro-β-acids (in words) / change rate of feed intake compared with the control group / change rate of weight gain compared with the control group / decrease rate of feed conversion ratio compared with the control group: 14 days; for ADFI (g/d per piglet) / ADG (g/d per piglet): 67-day-old piglets; for FCR: feed intake/weight gain; for animal production performance compared with the hexahydro-β-acids (in words) / change rate of feed intake compared with the control group / change rate of weight gain compared with the control group / decrease rate of feed conversion ratio compared with the control group / average daily weight gain vs control (in words): piglets; for animal production performance compared with the hexahydro-β-acids (in words) / change rate of feed intake compared with the control group / change rate of weight gain compared with the control group / decrease rate of feed conversion ratio compared with the control group: 25 ppm; for average daily weight gain vs control (in words): difference above 5% deemed obvious
Text: 240 67-day-old Duroc×Landrace×Yorkshire cross-bred bacon-type piglets with similar body weight, were randomly divided into 8 groups, with 3 replications per group, 10 piglets per replication and equal amount of males and females. The pig pen and tools were sterilized before the experiment. During the experiment, the piglets were kept in separate regions in the same pig pen under the same feeding and management conditions. The piglets were given ad libitum access to food and water, and feeds were provided twice every day. The groups were control group (group 1) and test groups 2 to 8, wherein piglets of the control group were given basal ration only, those of the test groups 2 to 8 were respectively given basal ration in combination with different additives with 25 ppm of active ingredient thereof, wherein the active ingredient was hexahydro-β-acids, or the hexahydro-β-acid compounds, or the coated substances of the hexahydro-β-acid compounds, as shown in Table 3.
During the entire process, each test group was not given other antioxidants or growth promoters. The experiment lasted for 14 days. On the 14th day, after withdrawing feed (without withdrawing water) for 12 hours, taking each replicate as one unit, the weight of each replication piglets was measured and each of average daily feed intake (ADFI, g/d per piglet), average daily weigh gain (ADG, g/d per piglet), and feed conversion ratio (FCR) was calculated. Average daily feed intake=(Total weight of provided feed−Weight of remaining feed)/(Number of days×Amount of piglets in each replicate) Average daily weight gain=(final average body weight−initial average body weight)/number of test days Feed conversion ratio=average daily feed intake/average daily weight gain

[6] = component within feed comprising 25 ppm of hexahydro-β-acids
[7] = 1% premix of hexahydro-β-acid compound
[8] = component within 1% premix of hexahydro-β-acids
[9] = component within hexahydro-β-acids
[10] = hexahydro-β-acid compound (free or coated substance)
[11] = feed comprising 25 ppm of hexahydro-β-acid compound

Row | Concentration (%) Day 5 [1, 6] | Concentration (%) Day 10 [1, 6] | Concentration (%) Day 5 [3, 7] | Concentration (%) Day 10 [3, 7] | Concentration (%) Day 5 [3, 8] | Concentration (%) Day 10 [3, 8] | Concentration (%) Day 5 [3, 9] | Concentration (%) Day 10 [3, 9] | Concentration (%) Day 5 [3, 10] | Concentration (%) Day 10 [3, 10] | Molecule | stability in feeds (in words) ([1]; ambient temperature) | ADFI (g/d per broiler) [4] | ADG (g/d per broiler) [4] | FCR [4] | change rate of feed intake compared with the control group ([4]; broilers, 25 ppm) | change rate of weight gain compared with the control group ([4]; broilers, 25 ppm) | decrease rate of feed conversion ratio compared with the control group ([4]; broilers, 25 ppm) | ADFI (g/d per piglet) [5] | ADG (g/d per piglet) [5] | FCR [5] | other results
1 | 53.88% | 37.69% | 99.39% | 97.39% | 97.02% | 97.56% | 96.48% | 90.43% | 99.76% | 99.10% | CC(C)CCC1=C(O)C(C(=O)C(C)C)=C(O)C(CCC(C)C)(CCC(C)C)C1=O [Hexahydro-colupulone, hexahydro-colupulone] | excellent short-term stability; also recorded: favourable stability | 49.68 g/d per broiler | 25.19 g/d per broiler | 1.97 | 0.26% | 8.86% | 7.94% | 894 g/d per piglet | 403 g/d per piglet | 2.218 | degradation ratio [2]: 2.6%; decrease in the concentration ([3]; day 10, component within 1% premix of hexahydro-β-acids): about 2.4%; decrease in the concentration ([3]; day 10, component within hexahydro-β-acids): about 10%; animal production performance compared with the hexahydro-β-acids (in words) [5]: improve the animal production performance effectively; change rate of feed intake compared with the control group [5]: 2.40%; change rate of weight gain compared with the control group [5]: 12.57%; decrease rate of feed conversion ratio compared with the control group [5]: 8.99%; average daily weight gain vs control (in words) [5]: obvious increase
2 | 60.55% | 0% | 97.24% | 95.68% | 88.97% | 88.63% | 91.48% | 82.87% | 98.01% | 96.63% | hexahydro-adlupulone | excellent short-term stability; also recorded: favourable stability | 50.06 g/d per broiler | 24.59 g/d per broiler | 2.04 | 1.03% | 6.27% | 4.67% | 860 g/d per piglet | 368 g/d per piglet | 2.340 | degradation ratio ([3]; 1% premix of the compound): 4.3%; decrease in feed conversion ratio / feed efficiency (in words) ([4]; broilers, 25 ppm): more effective than hexahydro-β-acids; animal production performance compared with the hexahydro-β-acids (in words) [5]: improve the animal production performance effectively; change rate of feed intake compared with the control group [5]: 1.49%; change rate of weight gain compared with the control group [5]: 2.79%; decrease rate of feed conversion ratio compared with the control group [5]: 3.98%; average daily weight gain vs control (in words) [5]: obvious increase
3 | 63.08% | 0% | 92.37% | 91.21% | 89.92% | 87.62% | 91.97% | 79.62% | 99.10% | 92.85% | hexahydro-lupulone [reference compound] | very poor stability in feeds | 49.13 g/d per broiler | 23.58 g/d per broiler | 2.08 | −0.85% | 1.90% | 2.80% | 864 g/d per piglet | 358 g/d per piglet | 2.413 | decrease of active compound in feed ([1]; ambient temperature, 10-day period, feed with 25 ppm): 95%; Concentration (%) Day 5 [1, 11]: 17.78%; Concentration (%) Day 10 [1, 11]: 4.96%; degradation ratio ([3]; 1% premix of the compound): 8.8%; degradation ratio ([3]; compound or coated substance): 7.2%; change rate of feed intake compared with the control group [5]: −1.03%; change rate of weight gain compared with the control group [5]: 0%; decrease rate of feed conversion ratio compared with the control group [5]: 0.98%

— patent US12133541B2, “Feed composition comprising hexahydro-β-acid component compounds and application thereof” (WISORIG TECHNOLOGIES PTE. LIMITED, priority 2019, dated 2024)
